One data set relates to OGT. Briefly: Western blot of OGT levels in treated COS-7 cells. The format is cell-based, African green monkey. The settings on record: 50 μM, 24 h. The procedure:
Westernlectin blots: Samples were run on 10% SDS polyacrylamide gels and transferred onto nitrocellulose membranes (Biorad). Membranes were blocked for 1 h in PBS containing 0.1% Tween-20 (PBS-T) containing 1% (unless otherwise stated) bovine serum albumin (BSA), and probed with the appropriate primary antibody or lectin in 1% BSA in PBS-T overnight at 4° C. Blots were washed for 1 hr with PBS-T, and blocked for a further 30 min with 1% BSA in PBS-T at room temperature. They were then probed with the appropriate horseradish peroxidise (HRP)-conjugated secondary antibodyprobe in 1% BSA in PBS-T at room temperature for 1 h, followed by washing in PBS-T for 1 h. Blots were developed with SuperSignal West Pico Chemiluminescent Substrate (Pierce) and exposed to CL-XPosure film (Pierce). Densitometry was performed using ImageQuant 5.2 (Molecular Dynamics), and fits to the data were made using GRAFIT^41.
Antibodieslectins: O-GlcNAc levels were assessed primarily using CTD110.6 (Covance), but RL2 (Abcam) and HGAC85 (Abcam) were also tested. Actin was probed using JLA20 (Developmental Studies Hybridoma Bank). OGA levels were assessed using a polyclonal anti-OGA antibody which was a kind gift from Dr. Gerald Hart and OGT levels using H-300 (Santa Cruz Biotechnology). nup62 was probed using mAb 414 (Covance). […]

Data set [1] has as its system O-GlcNAc levels in CHO cells. Briefly: Western blot of O-GlcNAc levels (CTD110.6) in treated CHO cells. It is filed as cell-based, Chinese hamster. Here is the method:
Cell culture: Cells were grown in an incubator at 37° C. and 5% CO2 atmosphere. Media and serum were purchased from Invitrogen. COS-7 cells were cultured in Dulbecco's modified Eagle's medium (DMEM) with 5% fetal bovine serum (FBS), and were typically 80-100% confluent prior to experimentation. HepG2, SK-N-SH, and EMEG32^−/− cells were cultured in Dulbecco's modified Eagle's medium (DMEM) with 5% fetal bovine serum (FBS), CHO cells in DMEMF-12 with 5% FBS and PC12 cells in DMEM with 5% FBS and 5% horse serum. Prior to experimentation, PC12 cells were plated at a density of 3-4×10^5 cells10 cm plate, which had been pre-treated with 5 μgcm^2 rat tail collagen (BD Biosciences). Cells were differentiated in DMEM containing 1% horse serum, in the presence of 2.5S mouse nerve growth factor (Chemicon) at a final concentration of 25 ng mL^−1, for 4-5 days prior to treatment. Other cell lines were 80-100% confluent prior to treatment. […]
Antibodieslectins: O-GlcNAc levels were assessed primarily using CTD110.6 (Covance), but RL2 (Abcam) and HGAC85 (Abcam) were also tested. […] OGA levels were assessed using a polyclonal anti-OGA antibody which was a kind gift from Dr. Gerald Hart and OGT levels using H-300 (Santa Cruz Biotechnology). nup62 was probed using mAb 414 (Covance). […]
A general note: Immunoblotting shows a protein as a band on a membrane.

The subject of data set [2] is EMEG32 heterozygous mouse embryonic fibroblast cells. Briefly: Cell proliferation growth curves over 5 days and western blot, EMEG32 heterozygous fibroblasts. The format is cell-based. The settings on record: 50 μM, 5 days. Here is the method: (A) Cell proliferation curves over the course of 5 days for CHO cells following no (circles), 50 μM Ac-GlcNAc (squares) or 50 μM Ac-5SGlcNAc (triangles) treatment. The error bars indicate the deviation from the mean for triplicate measurements. […] Upper panel, probed with anti-O-GlcNAc antibody (CTD110.6); lower panel, probed with anti-actin antibody. (B) Cell proliferation curves over the course of 5 days for EMEG heterozygous mouse embryonic fibroblast cells following no (circles), 50 μM Ac-GlcNAc (squares) or 50 μM Ac-5SGlcNAc (triangles) treatment. The error bars indicate the deviation from the mean for triplicate measurements. […] Upper panel, probed with anti-O-GlcNAc antibody (CTD110.6); lower panel, probed with anti-actin antibody. (C) Western blots of CHO cell lysates following no (C) or Ac-5SGlcNAc administration at 50 μM for 4 days. Probed with (from top to bottom) anti-Spl antibody, anti O-GlcNAc (CTD110.6) antibody and anti-actin antibody. Full blot of the anti-Sp 1 is shown in panel (d). (D) Western blots of CHO cell lysates following no (C) or Ac-5SGlcNAc administration at 50 μM for 4 days. The full blot probed with anti-Spl antibody is shown. (E) Western blots of COS-7 cell lysates following no (C) or 50 μM Ac-5SGlcNAc treatment for 24 h. Following treatment, the media was replaced with no inhibitor, and cells were harvested at the time points indicated (between 0 and 24 h). Upper panel, probed with anti-O-GlcNAc antibody (CTD110.6); lower panel, probed with anti-actin antibody.
Cellular responses to Ac-5SGlcNAc (9) treatment and consequent decreases in O-GlcNAc levels were evaluated. […] We quantitatively evaluated cell proliferation and established growth curves over the course of 5 days in both CHO and EMEG32 heterozygous mouse embryonic fibroblast cells treated with 50 μM Ac-5SGlcNAc (9), 50 μM Ac-GlcNAc (G), or vehicle (FIGS. 5A-B).

The term EC50 denotes the midpoint of the concentration-response curve.

In the case of `CC(=O)NC1C(OC(C)=O)SC(COC(C)=O)C(OC(C)=O)C1OC(C)=O` [Compound 9, N-Acetyl-1,3,4,6-tetra-O-acetyl-α-D-5-thio-glucosamine], the OGT levels result in the data set with OGT is “increase in OGT levels”. Also, the “O-GlcNAc levels at last time point of growth curve” value is “O-GlcNAc levels are still significantly decreased in cells treated with Ac-5SGlcNAc” in data set [1] (50 μM, 5 days) and “O-GlcNAc levels are still significantly decreased in cells treated with Ac-5SGlcNAc” in data set [2] (EMEG heterozygous cells). Besides, the EC50 in data set [1] (Cricetulus griseus, 24 h, read-out: EC50 for reduction of O-GlcNAc levels) turned out to be 800 nM. For the same molecule, in data set [2] (EMEG32 heterozygotes), the growth rate result was “indistinguishable but were both lower than vehicle treated cells”.
